Where a SMILES comes first, the peptide text is derived from it. [ ]: non-standard residue; d: D form.

Holding throughout (assay type): toxicity, cell-based
For series [1], the system named is HEK-293T. The experiment in a line: Incucyte cell viability with HEK293T. The following applies: human, 10 µM, compound concentration 10 uM.
Series [2] concerns Fibroblast. The series is described as follows: Incucyte cell viability with human fibroblast. The settings on record: 10 µM, compound concentration 10 uM.
Series [3] concerns U2OS. The series is described as follows: Incucyte cell viability with U2OS. The following applies: human, 10 µM, compound concentration 10 uM.
[4] abbreviates: 6 h, replicate number 1, timepoint 6 hours.
[5] abbreviates: 6 h, replicate number 2, timepoint 6 hours.
The mark [6] stands for this setting: 12 h, replicate number 1, timepoint 12 hours.
[7] abbreviates: 12 h, replicate number 2, timepoint 12 hours.
Setting [8] is: 18 h, replicate number 1, timepoint 18 hours.
The mark [9] stands for this setting: 18 h, replicate number 2, timepoint 18 hours.
The mark [10] stands for this setting: 24 h, replicate number 1, timepoint 24 hours.
Setting [11] is: 24 h, replicate number 2, timepoint 24 hours.
[12] abbreviates: 0 h, replicate number 2, timepoint 0 hours.
The mark [13] stands for this setting: 0 h, replicate number 1, timepoint 0 hours.
Further: unitless GR value; below 1 slowed growth and below 0 cell loss.

For `NC(=O)c1cc2c(-c3ccc(C(=O)NCc4ccnc(Cl)c4)s3)cccc2s1`, the “Growth Rate” value in series [1] (setting [4]) is listed as -0.01; in series [1] (setting [5]), 0.1; in series [1] (setting [6]) it was -0.09; in series [1] (setting [7]), 0.13; in series [1] (setting [8]) it was -0.18; in series [1] (setting [9]), -0.06. The “Growth Rate” value is on record as -0.15 in series [1] (setting [10]); 0.01 in series [1] (setting [11]); -0.81 in series [2] (setting [4]); -0.97 in series [2] (setting [5]); -0.77 in series [2] (setting [6]); -0.62 in series [2] (setting [7]). Moreover, the “Growth Rate” value is on record as -0.53 in series [2] (setting [8]); -0.15 in series [2] (setting [9]); -0.39 in series [2] (setting [10]); 0.32 in series [2] (setting [11]); -0.83 in series [3] (setting [12]); -0.27 in series [3] (setting [4]). For the same molecule, the “Growth Rate” value is 0.04 in series [3] (setting [5]); -0.23 in series [3] (setting [6]); 0.03 in series [3] (setting [7]); 0.07 in series [3] (setting [8]); 0 in series [3] (setting [9]); -0.11 in series [3] (setting [10]). In series [3] (setting [11]), the “Growth Rate” value is given as -0.08.

Take `CC[C@@H](C)Nc1nc(C)nc2c(-c3ccc(OC)nc3C)c(C)nn12` [PEXACERFONT]: the “Growth Rate” value in series [1] (setting [13]) stood at 0.85; in series [1] (setting [12]), 0.62; in series [1] (setting [7]), 0.9; in series [1] (setting [8]), 0.93; in series [1] (setting [10]) it was 0.84; in series [2] (setting [12]), 0.28. Moreover, the “Growth Rate” value in series [2] (setting [4]) is given as -0.25; in series [2] (setting [5]) it was -0.51; in series [2] (setting [6]), -0.18; in series [2] (setting [7]) it was 0.49; in series [2] (setting [8]), -0.19; in series [2] (setting [9]), 0.94. The “Growth Rate” value in series [2] (setting [10]) is given as -0.13; in series [2] (setting [11]) it was 1; in series [3] (setting [12]) it was -1; in series [3] (setting [4]) it was 1; in series [3] (setting [6]) it was 0.45; in series [3] (setting [8]) it was 0.67.

For `CCCCCCCCc1ccc(CCC(N)(CO)CO)cc1` [FINGOLIMOD], the “Growth Rate” value in series [1] (setting [4]) is on record as -0.74; in series [1] (setting [5]), -0.91; in series [1] (setting [6]), -0.52; in series [1] (setting [7]) it was -0.63; in series [1] (setting [8]), -0.41; in series [1] (setting [9]), -0.5. Besides, the “Growth Rate” value was -0.33 in series [1] (setting [10]); -0.4 in series [1] (setting [11]); -0.91 in series [2] (setting [4]); -0.95 in series [2] (setting [5]); -0.88 in series [2] (setting [6]); -0.71 in series [2] (setting [7]). Besides, the “Growth Rate” value is recorded as -0.82 in series [2] (setting [8]); -0.59 in series [2] (setting [9]); -0.7 in series [2] (setting [10]); -0.42 in series [2] (setting [11]); -0.97 in series [3] (setting [4]); -0.45 in series [3] (setting [5]). Moreover, the “Growth Rate” value in series [3] (setting [6]) is on record as -0.74; in series [3] (setting [7]), -0.31; in series [3] (setting [8]) it was -0.23; in series [3] (setting [10]) it was 0.13; in series [3] (setting [11]) it was -0.13.

Consider `OCCN1CCN(CCCN2c3ccccc3Sc3ccc(Cl)cc32)CC1` [PERPHENAZINE], for which the “Growth Rate” value in series [1] (setting [4]) amounted to 0.12; in series [1] (setting [5]), 0.25; in series [1] (setting [6]), 0.59; in series [1] (setting [7]) it was 0.45; in series [1] (setting [8]), 0.76; in series [1] (setting [9]), 0.67. Further, the “Growth Rate” value in series [1] (setting [10]) is given as 0.41; in series [1] (setting [11]), 0.76; in series [2] (setting [4]) it was -0.61; in series [2] (setting [5]), 0.55; in series [2] (setting [6]) it was -0.48; in series [2] (setting [7]) it was 0.42. For the same molecule, the “Growth Rate” value is reported as -0.34 in series [2] (setting [8]); 0.44 in series [2] (setting [9]); -0.08 in series [2] (setting [10]); 0.53 in series [2] (setting [11]); 0.28 in series [3] (setting [5]); 0.85 in series [3] (setting [6]). Also, the “Growth Rate” value in series [3] (setting [7]) was determined as 0.55; in series [3] (setting [9]), 0.64; in series [3] (setting [10]), 1; in series [3] (setting [11]) it was 0.69.

As to `CC(C)C[C@@H]1NC(=O)[C@@H](C(C)C)NC(=O)[C@@H]2CCCN2C(=O)[C@@H](CC(=O)O)NC(=O)[C@@H](Cc2c[nH]c3ccccc23)NC1=O` [BQ-123] (cyclo(L[dW][dD]P[dV])), the “Growth Rate” value in series [1] (setting [12]) is 0.79; in series [1] (setting [4]), 0.89; in series [1] (setting [6]), 0.92; in series [1] (setting [8]), 0.91; in series [1] (setting [10]) it was 0.97; in series [2] (setting [13]), 0.41. The “Growth Rate” value was 0.34 in series [2] (setting [12]); 0.81 in series [2] (setting [4]); 0.18 in series [2] (setting [5]); 0.87 in series [2] (setting [6]); 0.89 in series [2] (setting [7]); 0.98 in series [2] (setting [8]). Moreover, the “Growth Rate” value is 0.94 in series [2] (setting [9]); -1 in series [3] (setting [12]); 0.51 in series [3] (setting [4]); 0.68 in series [3] (setting [5]); 0.65 in series [3] (setting [6]); 0.49 in series [3] (setting [8]). For the same molecule, in series [3] (setting [10]), the “Growth Rate” value is given as 0.93.

For the molecule `CCCCCC(O)/C=C/[C@H]1C(=O)CC(O)C1C/C=C\CCCC(=O)O` (stereo partly drawn), the “Growth Rate” value in series [1] (setting [13]) is 0.99; in series [1] (setting [4]) it was 0.68; in series [1] (setting [6]), 0.59; in series [1] (setting [8]), 0.69; in series [1] (setting [10]), 0.58; in series [2] (setting [13]), 0.39. Moreover, the “Growth Rate” value in series [2] (setting [12]) is -0.28; in series [2] (setting [4]), -0.61; in series [2] (setting [6]), 0.36; in series [2] (setting [8]), 0.47; in series [2] (setting [10]), 0.54; in series [3] (setting [13]), -0.23. The “Growth Rate” value in series [3] (setting [12]) is reported as 0.05; in series [3] (setting [4]) it was 0.59; in series [3] (setting [6]), 0.59; in series [3] (setting [7]), 0.84; in series [3] (setting [8]) it was 0.66; in series [3] (setting [9]) it was 0.78. In addition, the figures for the “Growth Rate” value in series [3] (setting [10]) and in series [3] (setting [11]) were 0.72 and 0.87, respectively.

For `CC(/C=C1\SC(=S)N(CCCC(=O)Nc2ccc(C(=O)O)c(O)c2)C1=O)=C\c1ccccc1`, the “Growth Rate” value is 0.57 in series [1] (setting [13]); 0.54 in series [1] (setting [12]); -0.04 in series [2] (setting [12]); 0.97 in series [2] (setting [4]); 0.83 in series [2] (setting [10]); 0.71 in series [3] (setting [13]). Also, the results for the “Growth Rate” value in series [3] (setting [12]) and in series [3] (setting [5]) were -1 and 0.79, respectively.

With `CN1C[C@@H](NS(=O)(=O)N(C)C)C[C@@H]2c3cccc4c3c(cn4C)C[C@H]21.Cl` [MESULERGINE HYDROCHLORIDE], the “Growth Rate” value in series [1] (setting [13]) is given as 0.52; in series [1] (setting [12]), 0.55; in series [1] (setting [7]), 0.91; in series [2] (setting [5]), -0.13; in series [2] (setting [7]), 0.81; in series [3] (setting [13]), 0.87. Also, the “Growth Rate” value in series [3] (setting [5]) is 0.84; in series [3] (setting [8]), 0.99; in series [3] (setting [11]) it was 0.99.

Regarding `CCC(=O)NC[C@@H]1C[C@H]1c1cccc2c1CCO2` [TASIMELTEON], the “Growth Rate” value in series [1] (setting [13]) is 0.74; in series [1] (setting [12]), 0.1; in series [1] (setting [4]), 0.74; in series [1] (setting [8]), 0.92; in series [1] (setting [9]), 0.94; in series [1] (setting [10]), 0.79. Also, the “Growth Rate” value in series [1] (setting [11]) was found to be 0.99; in series [2] (setting [12]) it was 0.97; in series [2] (setting [4]), 0.35; in series [2] (setting [5]) it was 0.26; in series [2] (setting [6]) it was 0.48; in series [2] (setting [7]), 0.49. Also, the “Growth Rate” value is reported as 0.69 in series [2] (setting [8]); 0.76 in series [2] (setting [9]); 0.48 in series [2] (setting [10]); 0.82 in series [2] (setting [11]); -0.37 in series [3] (setting [13]); -0.06 in series [3] (setting [12]). Besides, the “Growth Rate” value in series [3] (setting [4]) stood at 0.85; in series [3] (setting [5]), 0.51; in series [3] (setting [6]), 0.97; in series [3] (setting [7]), 0.81; in series [3] (setting [9]), 0.96; in series [3] (setting [11]) it was 0.96.

Values taken from ChEMBL document CHEMBL5058564, “EUbOPEN Chemogenomics Library 2 (Incucyte)” (2022).
